Data published in patent publication US8178708B2, “Lipid derivatives” (Pronova Biopharma Norge AS, priority 2006, dated 2012).

Columns and labels:
[1] = molecular target: T1, ligand binding domain of human PPARδ (Homo sapiens, UniProt Q03181); experiment: GAL4-hPPARδ LBD luciferase reporter, transient transfection in COS-1 cells; settings: 10 μM; GAL4-hPPARδ LBD chimera in COS-1 cells; negative control = 1.00
T1 sequence (Q03181 211-439 limits assumed): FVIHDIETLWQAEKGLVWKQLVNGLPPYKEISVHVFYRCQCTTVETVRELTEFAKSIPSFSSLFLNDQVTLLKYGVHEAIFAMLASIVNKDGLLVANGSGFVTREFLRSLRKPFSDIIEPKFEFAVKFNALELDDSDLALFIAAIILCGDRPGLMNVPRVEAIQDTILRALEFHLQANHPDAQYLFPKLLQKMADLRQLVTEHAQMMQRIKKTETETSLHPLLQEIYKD

[2] = molecular target: T2, ligand binding domain of human RXRα (Homo sapiens, UniProt P19793); experiment: GAL4-hRXRα LBD luciferase reporter, transient transfection in COS-1 cells; settings: for Luciferase activation (fold activation) hRXRα: 10 μM, GAL4-hRXRα LBD chimera in COS-1 cells, negative control = 1.00
T2 sequence (P19793 227-458 limits assumed): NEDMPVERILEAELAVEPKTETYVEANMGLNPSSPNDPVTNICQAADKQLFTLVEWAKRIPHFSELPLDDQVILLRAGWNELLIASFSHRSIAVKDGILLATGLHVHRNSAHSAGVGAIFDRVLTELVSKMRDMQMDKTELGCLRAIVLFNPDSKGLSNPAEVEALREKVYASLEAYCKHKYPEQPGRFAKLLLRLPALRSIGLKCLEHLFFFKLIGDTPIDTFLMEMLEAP

[3] = molecular target: T3, ligand binding domain of human PPARα (Homo sapiens, UniProt Q07869); experiment: GAL4-hPPARα LBD luciferase reporter, transient transfection in COS-1 cells; settings: for Luciferase activation (fold activation) hPPARα: 10 μM, GAL4-hPPARα LBD chimera in COS-1 cells, negative control = 1.00; for PPAR selectivity profile (in words): conclusion from table 1, 10 μM
T3 sequence (Q07869 239-466 limits assumed): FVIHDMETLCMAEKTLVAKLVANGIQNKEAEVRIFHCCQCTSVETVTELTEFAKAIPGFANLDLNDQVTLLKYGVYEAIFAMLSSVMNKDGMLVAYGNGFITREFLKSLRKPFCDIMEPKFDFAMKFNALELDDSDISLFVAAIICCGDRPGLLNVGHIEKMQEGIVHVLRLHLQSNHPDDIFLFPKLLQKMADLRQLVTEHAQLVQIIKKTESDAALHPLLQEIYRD

[4] = molecular target: T4, ligand binding domain of human PPARγ (Homo sapiens, UniProt P37231); experiment: GAL4-hPPARγ LBD luciferase reporter, transient transfection in COS-1 cells; settings: 10 μM; GAL4-hPPARγ LBD chimera in COS-1 cells; negative control = 1.00
T4 sequence (P37231 238-503 limits assumed): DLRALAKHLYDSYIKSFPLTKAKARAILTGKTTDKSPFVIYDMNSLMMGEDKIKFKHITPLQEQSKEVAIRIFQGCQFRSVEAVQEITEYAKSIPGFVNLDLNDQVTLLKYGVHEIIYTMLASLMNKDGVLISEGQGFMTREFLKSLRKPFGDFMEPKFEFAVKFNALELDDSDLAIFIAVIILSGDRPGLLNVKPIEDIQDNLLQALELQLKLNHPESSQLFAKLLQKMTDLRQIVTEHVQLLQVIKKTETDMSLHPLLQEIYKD

[5] = system: NF-κB; experiment: Inhibition of NF-κB in human monocytic cell lines (U937-3xkB-LUC luciferase assay); assay type: cell-based; settings: U937-3xkB-LUC cells, NF-κB induced by LPS or human TNF-α; FIG. 1
Method: The novel compounds and DHA were solubilized to 12.5 μM in DMSO flushed with argon and stored at −20° C. Dexamethasone 10 μM in DMSO was used as positive control.
U937-3xkB-LUC cells, (Carlsen, J. Immun, 2002), were cultured in RPMI-1640 medium with L-glutamine ([…]), penicillin (50 U/ml), streptomycin ([…]), hygromycin (75 ug/ml), 10% Fetal Bovine Serum at 37° C. and 5% CO2. In the Cells were seeded in 24-well plates wherein 1% Fetal Bovin Serum was added to the medium. NF-κB activity was induced by lipopolysaccharide (LPS) (1 ug/ml) or human TNF-α (10 ng/ml). Cell viability was measured by trypan blue staining.
Luciferase activity was measured by imaging with a IVIS Imaging System from Xenogen Corp., USA. The Luminescence was detected after 1 min. and 5 min after addition of 0.2 mg d-luciferin per. ml cell medium. Number of photons in each well pr. second was calculated using Living Image Software (Xenogen Corp., USA).

Luciferase activation (fold activation) hPPARδ [1]	Luciferase activation (fold activation) hRXRα [2]	Luciferase activation (fold activation) hPPARα [3]	PPAR selectivity profile (in words) [3]	Luciferase activation (fold activation) hPPARγ [4]	RXRα ligand activity (in words) ([2]; conclusion from table 1, 10 μM)	Compound	Inhibition of the NF-κB pathway (in words) [5]
1.17 ± 00.20 fold activation	0.84 ± 0.09 fold activation	6.79 ± 0.21 fold activation	selective PPARα modulators/activators	1.67 ± 0.11 fold activation		CC/C=C\C/C=C\C/C=C\C/C=C\CC/C=C/C=C(\C)C(=O)O [Compound 11, (2E,4E,8Z,11Z,14Z,17Z)-2-methyl-icosa-2,4,8,11,14,17-hexaenoic acid]	
1.11 ± 0.16 fold activation	0.81 ± 0.05 fold activation	4.89 ± 0.31 fold activation	selective PPARα modulators/activators	1.63 ± 0.06 fold activation		CC/C=C\C/C=C\C/C=C\C/C=C\CC/C=C/C=C/C(=O)O [Compound 13, (2E,4E,8Z,11Z,14Z,17Z)-icosa-2,4,8,11,14,17-hexaenoic acid]	potent inhibitors of the NF-κB pathway
1.47 ± 0.38 fold activation	1.57 ± 0.08 fold activation	8.27 ± 0.81 fold activation	PPAR pan modulators/activators	4.32 ± 0.29 fold activation	RXRα ligand	CC/C=C\C/C=C\C/C=C\C/C=C\CC/C=C/C=C/C(C)=C/C(=O)O [Compound 25, (2E,4E,6E,10Z,13Z,16Z,19Z)-3-methyl-docosa-2,4,6,10,13,16,19-heptaenoic acid]	potent inhibitors of the NF-κB pathway

Second part, the compound before the results:

Compound	Luciferase activation (fold activation) hPPARδ [1]	Luciferase activation (fold activation) hRXRα [2]	Luciferase activation (fold activation) hPPARα [3]	PPAR selectivity profile (in words) [3]	Luciferase activation (fold activation) hPPARγ [4]	RXRα ligand activity (in words) ([2]; conclusion from table 1, 10 μM)	Inhibition of the NF-κB pathway (in words) [5]
CC/C=C\C/C=C\C/C=C\C/C=C\C/C=C\CCC/C(C)=C/C(=O)O [Compound 4, (2E,7Z,10Z,13Z,16Z,19Z)-3-methyl-docosa-2,7,10,13,16,19-hexaenoic acid]	1.28 ± 0.08 fold activation	0.90 ± 0.08 fold activation	4.51 ± 0.52 fold activation	selective PPARα modulators/activators	1.56 ± 0.12 fold activation		
Cc1cccc(Nc2cc(Cl)nc(SCC(=O)O)n2)c1C [Wy14643, reference compound]			2.27 ± 0.04 fold activation				
